Experiments:
HeLa cells [1] = experiment: Pulse-field gel electrophoresis assay of MNNG-induced DNA damage in HeLa cells; assay type: cell-based, human; conditions: DPQ 30 μM; ISO-1 100 μM
Excerpt: FIGS. 2A-2D. FIG. 2. MIF is a novel nuclease that cleaves genomic DNA.

cortical neurons = conditions: N-Arg 100 μM
Experimental: (H-J) Nuclear translocation of AIF and MIF after NMDA treatment in the presence or absence PARP inhibitor DPQ or nNOS inhibitor nitro-arginine (N-Arg, 100 μM) in cortical neurons, which was determined by subcellular fractionation. Intensity of MIF and AIF signal is shown in I & J. The experiments were replicated in three independent trials. The experiments were replicated in three independent trials. ***P<0.001, one-way ANOVA.
Primary neuronal cultures from cortex were prepared as previously described (9). Briefly, the cortex was dissected and the cells were dissociated by trituration in modified Eagle's medium (MEM), 20% horse serum, 30 mM glucose, and 2 mM L-glutamine after a 10-min digestion in 0.027% trypsin/saline solution (Gibco-BRL). The neurons were plated on 15-mm multiwell plates coated with polyornithine or on coverslips coated with polyornithine. Neurons were maintained in MEM, 10% horse serum, 30 mM glucose, and 2 mM L-glutamine in a 7% CO2 humidified 37° C. incubator. The growth medium was replaced twice per week. In mature cultures, neurons represent 70 to 90% of the total number of cells. […] Parthanatos was induced by either MNNG (Sigma) in HeLa cells or NMDA (Sigma) in neurons. […]

HeLa cells [2] = assay type: cell-based, human; conditions: DPQ 30 μM
Experimental: FIGS. 21A-21J. FIG. 21. […] Scale bar, 20 μm.
For immunocytochemistry, cells were fixed 4 hours after MNNG or NMDA treatment with 4% paraformaldehyde, permeabilized with 0.05% Triton X-100, and blocked with 3% BSA in PBS. AIF was visualized by Donkey anti-Rabbit Cy3 or donkey anti-rabbit 647. MIF was visualized by donkey anti-mouse cy2 (2 μg/ml), donkey anti-goat Cy2 or donkey anti-goat 647. Immunohistochemistry was performed with an antibody against Flag. Immunofluorescence analysis was carried out with an LSM710 confocal laser scanning microscope (Carl Zeiss) as described (9).

For O=C1NCCc2c(OCCCCN3CCCCC3)cccc21 [DPQ, 3,4-dihydro-5[4-(1-piperindinyl)butoxy]-1(2H)-isoquinoline], the “Effect on MNNG induced DNA damage / DNA cleavage” value (HeLa cells [1]) was “prevents MNNG induced DNA cleavage”, the “Accumulation of MIF and AIF in the nucleus after NMDA administration” value (cortical neurons) was “prevents accumulation of both MIF and AIF in the nucleus” and the “Accumulation of MIF and AIF in the nucleus after MNNG treatment” value (HeLa cells [2]) was “prevents accumulation of both MIF and AIF in the nucleus”.
